Assay results published in US9434711B2 (Janssen Pharmaceutica, NV, priority 2007, dated 2016).
Values joined by “and” are separate entries in the source; they are usually repeats but may differ in a detail not shown here. Equal entries are not always repeated. Where two headings read alike, the source gives them in different places. Blank lines part the entries; values can stand above or below the molecule they belong to.

How the values were obtained:
[1] = biological target: canine TRPM8 (Canis lupus familiaris, UniProt Q1A7N1); assay: TRPM8 Patch Clamp Assays (whole-cell, menthol or cold activation); type: cell-based
Description: For patch clamp experiments, HEK293 cells are stably transfected with canine TRPM8 and cultured in DMEM supplemented with 10% fetal bovine serum, 100 units/ml penicillin, 100 μg/ml streptomycin and 1 mg/ml G418. Cells are maintained at 37° C. and in 5% CO2.
The extracellular solution contains (in mM): NaCl, 132; EGTA, 1; KCl, 5.4; MgCl2, 0.8; HEPES, 10; glucose, 10; pH=7.4. Recordings are performed using the conventional whole-cell patch clamp technique, 1-2 days after plating cells onto glass coverslips at densities appropriate for single cell recording. Currents are amplified by a patch clamp amplifier and filtered at 2 kHz (Axopatch 200B, Molecular Devices, Union City, Calif.). Menthol (100 μM) is applied to the cell at 0.5 ml/min via a gravity-fed perfusion system. Recordings involving menthol activation are performed at 22° C.
In experiments where temperatures are varied, temperature ramps are generated by cooling the perfusate in an in-line cooler (Model SC-20, Warner Instruments, Hamden, Conn.) controlled by a temperature controller (Model CL-100, Warner Instruments). The temperature in the vicinity of the recorded cell is measured with a custom-made miniature thermo-microprobe connected to a monitoring thermometer (Model TH-8, Physitemp, Clifton, N.J.), and sampled using Digidata 1322A and pClamp 9.0 (Molecular Devices), as are the currents concurrently measured in the whole-cell patch clamp mode. The current is continuously sampled (at 100 Hz) at a holding potential of −60 mV.
Compounds of the formula (I) are diluted from 10 mM DMSO stocks (stored at −20° C.) into an extracellular solution either containing 100 μM menthol or subjected to cooling. Increasing concentrations of a compound are applied to a cell in a cumulative manner and concentration-dependent responses are measured after steady-state activation is achieved by either 100 μM menthol or cooling to 10° C. A saturating concentration of a reference antagonist is applied at the end of an experiment (either in the presence of 100 μM menthol or 10° C. temperature) to establish the baseline from which all the other measurements are subtracted.
Percentage inhibition by a compound is calculated as follows:
100×(1−Icomp/I0); where Icomp and I0 are steady-state current amplitudes in either the presence or absence of a concentration of compounds of the formula (I).

[2] = biological target: rat TRPM8 (Rattus norvegicus (Rat), UniProt Q8R455); assay: In Vitro Rat TRPM8 Functional Assay (Ca2+ fluorescence, icilin EC80); type: cell-based; conditions: read-out: rTRPM8 IC50
Description: HEK293 cells are routinely grown as monolayer in Dulbecco's minimum essential medium supplemented with 10% FBS, 1 mM L-glutamine, 100 units/mL penicillin and 100 ug/mL streptomycin. Cells are maintained in 5% CO2 at 37° C.
For functional expression of TRPM8, the full-length cDNA encoding human and rat TRPM8 are subcloned into pCI-NEO mammalian expression vectors. The expression constructs are transiently transfected into HEK293 cells according to the FuGENE 6 Transfection Reagent® (ROCHE) instructions. Within twenty-four hours, transiently transfected cells are harvested and either seeded directly into assay plate or cryopreserved for future usage. […]
Maximal fluorescence intensity (FI) achieved upon addition of icilin is exported from the FDSS and further analyzed using GraphPad Prism 3.02 (Graph Pad Software Inc., CA, U.S.A.) where data is normalized to percent of maximal response. The dose response curves from the average of quadruplicate wells for each data point are analyzed by using nonlinear regression of either sigmoidal dose response or sigmoidal dose response (variable slope). Finally, the IC50 values are calculated with the best-fit dose curve determined by Prism.

[3] = test system: Sprague-Dawley rats; assay: CFA-Induced Paw Radiant Heat Hypersensitivity; type: in vivo, rat; conditions: HPbCD, Na salt form
Description: Intraplantar injection of complete Freund's adjuvant (CFA) in rodents results in a long-lasting inflammatory reaction, characterized by a pronounced hypersensitivity to both thermal and mechanical stimuli. This hypersensitivity peaks between 24-72 hours following injection and can last for several weeks. To assess whether test compounds of the formula (I) reverse established hypersensitivity, a 100 μL intraplantar injection of CFA (suspended in a 1:1 emulsion of saline and heat-killed Mycobacterium tuberculosis in mineral oil) can be injected into a single hind paw of Sprague-Dawley rats (typically males ranging from 150-350 g). This paradigm also may be conducted with a multiple dosing or a prophylactic dosing regime designed to alter the course of hyperalgesia development. This test predicts the analgesic, anti-allodynic and antihyperalgesic effect of numerous effective clinical agents, including acetaminophen, NSAIDS such as aspirin and ibuprofen, and opioids, such as morphine.
Each rat is placed in a test chamber on a warm glass surface and allowed to acclimate for approximately 10 minutes. A radiant thermal stimulus (beam of light) is then focused through the glass onto the plantar surface of each hind paw in turn. The thermal stimulus is automatically shut off by a photoelectric relay when the paw is moved or when the cut-off time is reached (20 seconds for radiant heat at […]). An initial (baseline) response latency to the thermal stimulus is recorded for each animal prior to the injection of CFA. Twenty-four hours following intraplantar CFA injection, the response latency of the animal to the thermal stimulus is then re-evaluated and compared to the animal's baseline response time. […] Immediately following the post-CFA latency assessment, test compound or vehicle (usually Solutol, hydroxypropyl methylcellulose, hydroxypropyl beta-cyclodextrin or PEG-400) is administered i.p. or p.o. to rats. Post-compound treatment withdrawal latencies are assessed at fixed time intervals, typically 30, 60 and 120 minutes. The percent reversal (% R) of hypersensitivity is calculated according to the following formula: % Reversal=(Treatment Response-CFA Response)/(Baseline Response-CFA Response)×100.

canine TRPM8, sequence (Q1A7N1 1-1104): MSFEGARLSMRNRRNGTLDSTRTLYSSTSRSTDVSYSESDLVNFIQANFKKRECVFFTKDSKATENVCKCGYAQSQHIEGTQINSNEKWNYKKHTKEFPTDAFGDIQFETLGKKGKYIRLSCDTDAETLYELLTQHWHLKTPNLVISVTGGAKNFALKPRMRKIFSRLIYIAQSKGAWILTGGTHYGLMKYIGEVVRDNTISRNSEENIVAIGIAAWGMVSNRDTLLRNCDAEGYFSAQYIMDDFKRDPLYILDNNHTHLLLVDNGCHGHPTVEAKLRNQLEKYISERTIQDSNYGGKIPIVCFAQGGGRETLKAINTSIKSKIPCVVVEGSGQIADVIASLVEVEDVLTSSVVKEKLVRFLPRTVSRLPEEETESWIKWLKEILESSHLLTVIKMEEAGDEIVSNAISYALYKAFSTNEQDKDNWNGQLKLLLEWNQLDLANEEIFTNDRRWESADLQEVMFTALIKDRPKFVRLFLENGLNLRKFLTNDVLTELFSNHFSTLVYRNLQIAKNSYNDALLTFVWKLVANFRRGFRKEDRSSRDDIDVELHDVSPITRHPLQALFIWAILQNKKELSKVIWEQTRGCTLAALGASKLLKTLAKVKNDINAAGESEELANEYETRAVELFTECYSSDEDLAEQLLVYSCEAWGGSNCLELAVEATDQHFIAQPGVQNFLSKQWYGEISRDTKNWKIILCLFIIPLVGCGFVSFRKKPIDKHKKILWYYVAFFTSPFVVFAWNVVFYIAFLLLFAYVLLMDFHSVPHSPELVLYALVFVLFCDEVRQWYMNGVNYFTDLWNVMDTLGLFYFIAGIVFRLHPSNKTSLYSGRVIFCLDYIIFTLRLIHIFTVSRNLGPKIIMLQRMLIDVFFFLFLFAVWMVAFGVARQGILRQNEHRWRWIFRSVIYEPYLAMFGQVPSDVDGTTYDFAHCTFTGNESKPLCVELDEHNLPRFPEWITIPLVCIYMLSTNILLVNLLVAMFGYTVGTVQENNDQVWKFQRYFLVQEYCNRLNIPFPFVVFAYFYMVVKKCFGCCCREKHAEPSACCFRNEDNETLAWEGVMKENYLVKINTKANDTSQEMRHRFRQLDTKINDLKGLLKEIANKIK
rat TRPM8, sequence (Q8R455 whole entry): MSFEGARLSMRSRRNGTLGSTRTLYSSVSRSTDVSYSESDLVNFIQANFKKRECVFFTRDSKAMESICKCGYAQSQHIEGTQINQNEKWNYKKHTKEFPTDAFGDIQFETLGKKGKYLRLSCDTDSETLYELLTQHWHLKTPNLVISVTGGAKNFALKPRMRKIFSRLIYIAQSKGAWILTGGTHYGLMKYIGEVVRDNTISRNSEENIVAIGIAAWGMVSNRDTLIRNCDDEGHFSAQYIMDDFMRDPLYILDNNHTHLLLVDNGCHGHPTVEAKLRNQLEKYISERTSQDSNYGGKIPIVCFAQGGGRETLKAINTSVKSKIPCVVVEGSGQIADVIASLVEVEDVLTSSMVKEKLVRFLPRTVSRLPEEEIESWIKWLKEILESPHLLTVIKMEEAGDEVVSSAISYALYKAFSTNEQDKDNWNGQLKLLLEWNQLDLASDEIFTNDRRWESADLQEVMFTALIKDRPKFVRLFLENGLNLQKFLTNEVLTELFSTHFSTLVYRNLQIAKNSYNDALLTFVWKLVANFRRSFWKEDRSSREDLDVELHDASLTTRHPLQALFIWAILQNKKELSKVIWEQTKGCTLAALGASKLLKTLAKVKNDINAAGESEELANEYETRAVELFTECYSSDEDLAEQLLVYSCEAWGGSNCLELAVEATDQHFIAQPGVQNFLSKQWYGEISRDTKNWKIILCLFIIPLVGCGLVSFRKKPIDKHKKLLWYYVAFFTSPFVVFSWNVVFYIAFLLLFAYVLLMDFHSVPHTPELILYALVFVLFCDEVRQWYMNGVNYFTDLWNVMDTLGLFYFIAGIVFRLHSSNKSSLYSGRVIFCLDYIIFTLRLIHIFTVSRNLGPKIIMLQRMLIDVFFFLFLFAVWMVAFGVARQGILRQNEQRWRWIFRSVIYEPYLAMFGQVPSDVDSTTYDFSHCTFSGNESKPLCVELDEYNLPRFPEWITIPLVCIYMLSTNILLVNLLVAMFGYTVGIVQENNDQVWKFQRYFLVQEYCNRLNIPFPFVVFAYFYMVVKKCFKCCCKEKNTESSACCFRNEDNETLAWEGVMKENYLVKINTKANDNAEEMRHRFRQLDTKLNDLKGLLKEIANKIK

IC50 ([1]; cold stimulation): 2.3 nM | inhibition at 0.001 µM ([1]; cold stimulation): 22.4% | inhibition at 0.003 µM ([1]; cold stimulation): 60.1% | inhibition at 0.01 µM ([1]; cold stimulation): 86.2% | inhibition at 0.03 µM ([1]; cold stimulation, 0.03 μM): 97.3% | IC50 ([1]; menthol stimulation): 1.1 nM | inhibition at 0.0003 µM ([1]; menthol stimulation): 11.6% | inhibition at 0.001 µM ([1]; menthol stimulation): 47.3% | inhibition at 0.003 µM ([1]; menthol stimulation): 78% | inhibition at 0.01 µM ([1]; menthol stimulation): 94.9% | IC50 ([2]; Freshly transfected cells): 5 nM
SMILES: Cc1c(N(Cc2ccc(F)c(C(F)(F)F)c2)S(=O)(=O)c2ccc(C(=O)O)cc2)sc2ccccc12 [Compound 306, N-(3-Methyl-benzo[b]thiophen-2-yl)-N-(4-fluoro-3-trifluoromethyl-benzyl)-4-carboxy-benzenesulfonamide]
Percent Reversal ([3]; dose 3 p.o., treatment time 100 min): 31% | Percent Reversal ([3]; dose 5.6 p.o., treatment time 100 min): 76% | Percent Reversal ([3]; dose 10 p.o., treatment time 100 min): 91% and 93% | Percent Reversal ([3]; dose 30 p.o., treatment time 100 min): 59%

IC50 ([1]; cold stimulation): 0.554 nM | inhibition at 0.0003 µM ([1]; cold stimulation): 21.6% | inhibition at 0.001 µM ([1]; cold stimulation): 77.7% | inhibition at 0.003 µM ([1]; cold stimulation): 96.4% | IC50 ([1]; menthol stimulation): 0.183 nM | inhibition at 0.0001 µM ([1]; menthol stimulation, 0.0001 μM): 27.5% | inhibition at 0.0003 µM ([1]; menthol stimulation): 68.6% | inhibition at 0.001 µM ([1]; menthol stimulation): 95.8% | inhibition at 0.003 µM ([1]; menthol stimulation): 99.6% | IC50 ([2]; Cryopreserved cells): 1.8 nM
SMILES: Cc1c(N(Cc2ccc(OC(F)(F)F)cc2)S(=O)(=O)c2ccc(C(=O)O)cc2)sc2ccccc12 [Compound 496, N-(3-Methyl-benzo[b]thiophen-2-yl)-N-(4-trifluoromethoxy-benzyl)-4-carboxy-benzenesulfonamide]
Percent Reversal ([3]; dose 1 p.o., treatment time 60 min): 9% | Percent Reversal ([3]; dose 3 p.o., treatment time 60 min): −10% | Percent Reversal ([3]; dose 5.6 p.o., treatment time 60 min): 10% | Percent Reversal ([3]; dose 30 p.o., treatment time 60 min): 30%
